Laboratory results published in patent US20140038989A1, “TETRAHYDROPYRAZOLO [1,5-A] PYRIMIDINE AS ANTI-TUBERCULOSIS COMPOUNDS” (Glaxo Group Limited, priority 2011, published 2014).
Converted amounts (≈) assume the structure as drawn.

Tested on: Mycobacterium tuberculosis H37Rv
Assay: Mycobacterium tuberculosis H37Rv Inhibition Assay (Whole Cell Assay)
Assay type: cell-based
Details: ATCC 25618 / H37Rv, H37Rv strain (ATCC25618), Middlebrook 7H9, six days at 37° C., resazurin fluorescence after 48 hours

SMILES: Cc1ccc([C@H]2C[C@@H](C(F)(F)F)n3ncc(C(=O)NCc4ccco4)c3N2)cc1 (relative stereo) [56′, Cis-N-(furan-2-ylmethyl)-5-(p-tolyl)-7-(trifluoromethyl)-4,5,6,7-tetrahydropyrazolo[1,5-a]pyrimidine-3-carboxamide, reference compound]
- MIC: > 2 µM

SMILES: CCc1ccc([C@H]2C[C@@H](C(F)(F)F)n3ncc(C(=O)NCc4ccc(OC)cc4)c3N2)cc1 (relative stereo) [Example 1, Cis-5-(4-ethylphenyl)-N-(4-methoxybenzyl)-7-(trifluoromethyl)-4,5,6,7-tetrahydropyrazolo[1,5-a]pyrimidine-3-carboxamide]
- MIC: ≤ 1 µM

SMILES: CCc1ccc([C@H]2C[C@@H](C(F)(F)F)n3ncc(C(=O)NCc4cccc(C)c4)c3N2)cc1 (relative stereo) [Example 3, Cis-5-(4-ethylphenyl)-N-(3-methylbenzyl)-7-(trifluoromethyl)-4,5,6,7-tetrahydropyrazolo[1,5-a]pyrimidine-3-carboxamide]
- MIC: ≤ 1 µM

SMILES: CCc1ccc([C@H]2C[C@@H](C(F)(F)F)n3ncc(C(=O)NCc4ccc(C)o4)c3N2)cc1 (relative stereo) [Example 4, Cis-5-(4-ethylphenyl)-N-((5-methylfuran-2-yl)methyl)-7-(trifluoromethyl)-4,5,6,7-tetrahydropyrazolo[1,5-a]pyrimidine-3-carboxamide]
- MIC: ≤ 1 µM

SMILES: CCc1ccc([C@H]2C[C@@H](C(F)(F)F)n3ncc(C(=O)NCC4CCCCC4)c3N2)cc1 (relative stereo) [Example 5, Cis-N-(cyclohexylmethyl)-5-(4-ethylphenyl)-7-(trifluoromethyl)-4,5,6,7-tetrahydropyrazolo[1,5-a]pyrimidine-3-carboxamide]
- MIC: ≤ 1 µM

SMILES: CCc1ccc([C@H]2C[C@@H](C(F)(F)F)n3ncc(C(=O)NCc4ccc(C(F)(F)F)cc4)c3N2)cc1 (relative stereo) [Example 6, Cis-5-(4-ethylphenyl)-7-(trifluoromethyl)-N-(4-(trifluoromethyl)benzyl)-4,5,6,7-tetrahydropyrazolo[1,5-a]pyrimidine-3-carboxamide]
- MIC: ≤ 1 µM

SMILES: CCc1ccc([C@H]2C[C@@H](C(F)(F)F)n3ncc(C(=O)NCc4cccc(OC)c4)c3N2)cc1 (relative stereo) [Example 8, Cis-5-(4-ethylphenyl)-N-{[3-(methyloxy)phenyl]methyl}-7-(trifluoromethyl)-4,5,6,7-tetrahydropyrazolo[1,5-a]pyrimidine-3-carboxamide]
- MIC: ≤ 1 µM

SMILES: CCc1ccc([C@H]2C[C@@H](C(F)(F)F)n3ncc(C(=O)NCc4ccc(C)c(Cl)c4)c3N2)cc1 (relative stereo) [Example 9, Cis-N-(3-chloro-4-methylbenzyl)-5-(4-ethylphenyl)-7-(trifluoromethyl)-4,5,6,7-tetrahydropyrazolo[1,5-a]pyrimidine-3-carboxamide]
- MIC: ≤ 1 µM

SMILES: CCc1ccc([C@H]2C[C@@H](C(F)(F)F)n3ncc(C(=O)NCc4cccn4C)c3N2)cc1 (relative stereo) [Example 10, Cis-5-(4-ethylphenyl)-N-[(1-methyl-1H-pyrrol-2-yl)methyl]-7-(trifluoromethyl)-4,5,6,7-tetrahydropyrazolo[1,5-a]pyrimidine-3-carboxamide]
- MIC: 1 to 2 µM (≈ 0.431 to 0.863 µg/mL)

SMILES: CCc1ccc([C@H]2C[C@@H](C(F)(F)F)n3ncc(C(=O)NCc4ccc(N(C)C)cc4)c3N2)cc1 (relative stereo) [Example 11, Cis-N-(4-(dimethylamino)benzyl)-5-(4-ethylphenyl)-7-(trifluoromethyl)-4,5,6,7-tetrahydropyrazolo[1,5-a]pyrimidine-3-carboxamide]
- MIC: 1 to 2 µM (≈ 0.472 to 0.943 µg/mL)

SMILES: CCc1ccc([C@H]2C[C@@H](C(F)(F)F)n3ncc(C(=O)NCc4ccoc4)c3N2)cc1 (relative stereo) [Example 12, Cis-5-(4-ethylphenyl)-N-(furan-3-ylmethyl)-7-(trifluoromethyl)-4,5,6,7-tetrahydropyrazolo[1,5-a]pyrimidine-3-carboxamide]
- MIC: ≤ 1 µM

SMILES: CCc1ccc([C@H]2C[C@@H](C(F)(F)F)n3ncc(C(=O)NCc4cccc(C(F)(F)F)c4)c3N2)cc1 (relative stereo) [Example 14, Cis-5-(4-ethylphenyl)-7-(trifluoromethyl)-N-{[3-(trifluoromethyl)phenyl]methyl}-4,5,6,7-tetrahydropyrazolo[1,5-a]pyrimidine-3-carboxamide]
- MIC: 1 to 2 µM (≈ 0.496 to 0.993 µg/mL)

SMILES: CCc1ccc([C@H]2C[C@@H](C(F)(F)F)n3ncc(C(=O)NCc4ccccc4)c3N2)cc1 (relative stereo) [Example 15, Cis-N-benzyl-5-(4-ethylphenyl)-7-(trifluoromethyl)-4,5,6,7-tetrahydropyrazolo[1,5-a]pyrimidine-3-carboxamide]
- MIC: ≤ 1 µM

SMILES: CCc1ccc([C@H]2C[C@@H](C(F)(F)F)n3ncc(C(=O)NCc4ccc(F)c(F)c4)c3N2)cc1 (relative stereo) [Example 16, Cis-N-[(3,4-difluorophenyl)methyl]-5-(4-ethylphenyl)-7-(trifluoromethyl)-4,5,6,7-tetrahydropyrazolo[1,5-a]pyrimidine-3-carboxamide]
- MIC: ≤ 1 µM

SMILES: CCc1ccc([C@H]2C[C@@H](C(F)(F)F)n3ncc(C(=O)NCc4cc(F)cc(F)c4)c3N2)cc1 (relative stereo) [Example 17, Cis-N-[(3,5-difluorophenyl)methyl]-5-(4-ethylphenyl)-7-(trifluoromethyl)-4,5,6,7-tetrahydropyrazolo[1,5-a]pyrimidine-3-carboxamide]
- MIC: ≤ 1 µM

SMILES: CCc1ccc([C@H]2C[C@@H](C(F)(F)F)n3ncc(C(=O)NCc4ccc5c(c4)OCCO5)c3N2)cc1 (relative stereo) [Example 18, Cis-N-(2,3-dihydro-1,4-benzodioxin-6-ylmethyl)-5-(4-ethylphenyl)-7-(trifluoromethyl)-4,5,6,7-tetrahydropyrazolo[1,5-a]pyrimidine-3-carboxamide]
- MIC: 1 to 2 µM (≈ 0.486 to 0.973 µg/mL)

SMILES: CCc1ccc([C@H]2C[C@@H](C(F)(F)F)n3ncc(C(=O)NCc4ccc(C)nc4)c3N2)cc1 (relative stereo) [Example 19, Cis-5-(4-ethylphenyl)-N-((6-methylpyridin-3-yl)methyl)-7-(trifluoromethyl)-4,5,6,7-tetrahydropyrazolo[1,5-a]pyrimidine-3-carboxamide]
- MIC: 1 to 2 µM (≈ 0.443 to 0.887 µg/mL)

SMILES: CCc1ccc([C@H]2C[C@@H](C(F)(F)F)n3ncc(C(=O)NCc4ccc(C)cn4)c3N2)cc1 (relative stereo) [Example 20, Cis-5-(4-ethylphenyl)-N-((5-methylpyridin-2-yl)methyl)-7-(trifluoromethyl)-4,5,6,7-tetrahydropyrazolo[1,5-a]pyrimidine-3-carboxamide]
- MIC: 1 to 2 µM (≈ 0.443 to 0.887 µg/mL)

SMILES: Cc1ccc(CNC(=O)c2cnn3c2N[C@@H](c2ccc(Br)cc2)C[C@H]3C(F)(F)F)cc1 (relative stereo) [Example 21, Cis-5-(4-bromophenyl)-N-(4-methylbenzyl)-7-(trifluoromethyl)-4,5,6,7-tetrahydropyrazolo[1,5-a]pyrimidine-3-carboxamide]
- MIC: ≤ 1 µM

SMILES: O=C(NCc1ccc2c(c1)OCO2)c1cnn2c1N[C@@H](c1ccc(Br)cc1)C[C@H]2C(F)(F)F (relative stereo) [Example 22, Cis-N-(benzo[d][1,3]dioxol-5-ylmethyl)-5-(4-bromophenyl)-7-(trifluoromethyl)-4,5,6,7-tetrahydropyrazolo[1,5-a]pyrimidine-3-carboxamide]
- MIC: ≤ 1 µM

SMILES: CCc1ccc([C@H]2C[C@@H](C)n3ncc(C(=O)NCc4ccc(OC)cc4)c3N2)cc1 (relative stereo) [Example 23, Cis-5-(4-ethylphenyl)-7-methyl-N-{[4-(methyloxy)phenyl]methyl}-4,5,6,7-tetrahydropyrazolo[1,5-a]pyrimidine-3-carboxamide]
- MIC: ≤ 1 µM

SMILES: Cc1ccc([C@H]2C[C@@H](C(F)(F)F)n3ncc(C(=O)NCc4cccc(C)c4)c3N2)cc1 (relative stereo) [Example 24, Cis-N-(3-methylbenzyl)-5-(p-tolyl)-7-(trifluoromethyl)-4,5,6,7-tetrahydropyrazolo[1,5-a]pyrimidine-3-carboxamide]
- MIC: ≤ 1 µM

SMILES: Cc1ccc(CNC(=O)c2cnn3c2N[C@@H](c2ccc(C)cc2)C[C@H]3C(F)(F)F)cc1 (relative stereo) [Example 25, Cis-N-(4-methylbenzyl)-5-(p-tolyl)-7-(trifluoromethyl)-4,5,6,7-tetrahydropyrazolo[1,5-a]pyrimidine-3-carboxamide]
- MIC: ≤ 1 µM

SMILES: Cc1ccc([C@H]2C[C@@H](C(F)(F)F)n3ncc(C(=O)NCC4CCCCC4)c3N2)cc1 (relative stereo) [Example 26, Cis-N-(cyclohexylmethyl)-5-(p-tolyl)-7-(trifluoromethyl)-4,5,6,7-tetrahydropyrazolo[1,5-a]pyrimidine-3-carboxamide]
- MIC: 1 to 2 µM (≈ 0.42 to 0.841 µg/mL)

SMILES: COc1cccc(CNC(=O)c2cnn3c2N[C@@H](c2ccc(C)cc2)C[C@H]3C(F)(F)F)c1 (relative stereo) [Example 27, Cis-N-(3-methoxybenzyl)-5-(p-tolyl)-7-(trifluoromethyl)-4,5,6,7-tetrahydropyrazolo[1,5-a]pyrimidine-3-carboxamide]
- MIC: 1 to 2 µM (≈ 0.444 to 0.889 µg/mL)

SMILES: Cc1ccc([C@H]2C[C@@H](C(F)(F)F)n3ncc(C(=O)NCc4ccc(C(F)(F)F)cc4)c3N2)cc1 (relative stereo) [Example 28, Cis-5-(p-tolyl)-7-(trifluoromethyl)-N-(4-(trifluoromethyl)benzyl)-4,5,6,7-tetrahydropyrazolo[1,5-a]pyrimidine-3-carboxamide]
- MIC: 1 to 2 µM (≈ 0.482 to 0.965 µg/mL)

SMILES: Cc1ccc([C@H]2C[C@@H](C(F)(F)F)n3ncc(C(=O)NCc4ccc(C)c(Cl)c4)c3N2)cc1 (relative stereo) [Example 29, Cis-N-(3-chloro-4-methylbenzyl)-5-(p-tolyl)-7-(trifluoromethyl)-4,5,6,7-tetrahydropyrazolo[1,5-a]pyrimidine-3-carboxamide]
- MIC: 1 to 2 µM (≈ 0.463 to 0.926 µg/mL)

SMILES: Cc1ccc([C@H]2C[C@@H](C(F)(F)F)n3ncc(C(=O)NCc4cc(F)cc(F)c4)c3N2)cc1 (relative stereo) [Example 30, Cis-N-(3,5-difluorobenzyl)-5-(p-tolyl)-7-(trifluoromethyl)-4,5,6,7-tetrahydropyrazolo[1,5-a]pyrimidine-3-carboxamide]
- MIC: ≤ 1 µM
